According to patent US20240207198A1, “ELECTROSPUN STRUCTURES HAVING A PHARMACEUTICAL AND METHODS OF MAKING AND USING THE SAME” (NFS IP Holdings, LLC, priority 2020, published 2024):
Where a name gives a salt, the structure may show the parent alone.

Key:
[1] = Oral vs. sublingual delivery of cannabidiol in a porcine model (plasma concentration by HPLC); assay type: in vivo, Yorkshire pigs; settings: sublingual electrospun polyethylene oxide fiber scaffold ("strip") vs oral "gummy"; 10 mg cannabidiol each; representative pig 7-18; blood 3-120 min; FIG. 3
Procedure: Four healthy Yorkshire pigs were selected to receive both oral and sublingual administrations of cannabidiol (i.e., each animal received both an oral administration and a sublingual administration separated by 48 hours). For the sublingual administration, a scaffold comprising fibers as described herein was used for each animal. Specifically, the fibers were electrospun using a polymer solution comprising cannabidiol and 13 wt % 100,000 molecular weight polyethylene oxide dissolved in dichloromethane. The cannabidiol was dispersed within the resulting electrospun polyethylene oxide fibers, as described herein. The resulting electrospun polyethylene oxide fibers comprised 40 wt % cannabidiol (relative to the polyethylene oxide mass) and 50 wt % confectionary sugar (i.e., for every 10 mg of polyethylene oxide, 4 mg of cannabidiol and 5 mg of confectionary sugar were added).
(§1) The scaffold was placed under the tongue of each animal and allowed to dissolve in place. A catheter was placed in the animal's vein and used to withdraw blood at baseline and at 3, 9, 15, 30, 45, 60, and 120 minutes post-administration. […]
Each blood sample was analyzed using high-performance liquid chromatography (HPLC) to determine the plasma concentration of cannabidiol in ng/mL. […]

[2] = Oral vs. sublingual delivery of sildenafil citrate in a porcine model (plasma concentration by HPLC); assay type: in vivo, Yorkshire pigs; settings: sublingual electrospun polyethylene oxide fiber scaffold ("strip") vs oral "pill", 25 mg sildenafil citrate each, representative pig 4-17, FIG. 4
Procedure: Four healthy Yorkshire pigs were selected to receive both oral and sublingual administrations of sildenafil citrate (i.e., each animal received both an oral administration and a sublingual administration separated by 48 hours). For the sublingual administration, a scaffold comprising fibers as described herein was used for each animal. Specifically, the fibers comprised were electrospun using a polymer solution comprising sildenafil citrate and 13 wt % 100,000 molecular weight polyethylene oxide dissolved in dichloromethane. The sildenafil citrate was dispersed within the resulting electrospun polyethylene oxide fibers, as described herein. The resulting electrospun polyethylene oxide fibers comprised 25 wt % sildenafil citrate (relative to the polyethylene oxide mass) and 50 wt % confectionary sugar (i.e., for every 10 mg of polyethylene oxide, 2.5 mg of sildenafil citrate and 5 mg of confectionary sugar were added).
as §1
Each blood sample was analyzed using HPLC to determine the plasma concentration of sildenafil citrate in ng/mL. […]

Row | Structure (SMILES) | plasma concentration of cannabidiol, sublingual compared to oral administration [1] | duration of the higher plasma concentration of sildenafil citrate, sublingual compared to oral administration [2] | plasma concentration of sildenafil citrate, sublingual compared to oral administration ([2]; blood 3-120 min)
1 | C=C(C)[C@@H]1CCC(C)=C[C@H]1c1c(O)cc(CCCCC)cc1O [cannabidiol] | higher plasma concentration in a shorter period of time | – | –
2 | CCCc1nn(C)c2c(=O)[nH]c(-c3cc(S(=O)(=O)N4CCN(C)CC4)ccc3OCC)nc12 [sildenafil citrate] | – | maintained the higher plasma concentration over a longer period of time | higher plasma concentration in a shorter period of time
